Data: patent US20240293400A1, “NOVEL AZAINDOLE DERIVATIVES AS ANTIVIRAL AGENTS” (Centre National de la Recherche Scientifique, priority 2021, published 2024)

Experiments:
[1] = biological target: TYRO3 (RSE) (Homo sapiens (Human), UniProt Q06418); assay: Kinase panel Z'-LYTE/Adapta SelectScreen; format: biochemical; conditions: 100 nM in 1% DMSO
Experimental: (§1) The inhibitory activity of the compounds on a panel of kinases including, inter alia, AXL and FLT3 was evaluated by Thermo Fisher Scientific using Z′-LYTE® and Adapta® Select Screen technology.
(§2) The fluorescence-based biochemical test uses coupled enzymes and is based on the difference in sensitivity of the phosphorylated and non-phosphorylated peptides to proteolytic cleavage. The peptide substrate is labeled with 2 fluorophores—one at each end—allowing fluorescence transfer (FRET).
(§3) Compounds 1, 2 and 3 are tested in wells at the final concentration of 100 nM in 1% DMSO.

[2] = biological target: IKBKB (IKK beta) (Homo sapiens (Human), UniProt O14920); assay: Kinase panel Z'-LYTE/Adapta SelectScreen; format: biochemical; conditions: 100 nM in 1% DMSO
Experimental: as §1, §2, §3

[3] = biological target: KIT (Homo sapiens (Human), UniProt P10721); assay: Kinase panel Z'-LYTE/Adapta SelectScreen; format: biochemical; conditions: 100 nM in 1% DMSO
Experimental: as §1, §2, §3

[4] = biological target: YES1 (Homo sapiens (Human), UniProt P07947); assay: Kinase panel Z'-LYTE/Adapta SelectScreen; format: biochemical; conditions: 100 nM in 1% DMSO
YES1, sequence (P07947 whole entry): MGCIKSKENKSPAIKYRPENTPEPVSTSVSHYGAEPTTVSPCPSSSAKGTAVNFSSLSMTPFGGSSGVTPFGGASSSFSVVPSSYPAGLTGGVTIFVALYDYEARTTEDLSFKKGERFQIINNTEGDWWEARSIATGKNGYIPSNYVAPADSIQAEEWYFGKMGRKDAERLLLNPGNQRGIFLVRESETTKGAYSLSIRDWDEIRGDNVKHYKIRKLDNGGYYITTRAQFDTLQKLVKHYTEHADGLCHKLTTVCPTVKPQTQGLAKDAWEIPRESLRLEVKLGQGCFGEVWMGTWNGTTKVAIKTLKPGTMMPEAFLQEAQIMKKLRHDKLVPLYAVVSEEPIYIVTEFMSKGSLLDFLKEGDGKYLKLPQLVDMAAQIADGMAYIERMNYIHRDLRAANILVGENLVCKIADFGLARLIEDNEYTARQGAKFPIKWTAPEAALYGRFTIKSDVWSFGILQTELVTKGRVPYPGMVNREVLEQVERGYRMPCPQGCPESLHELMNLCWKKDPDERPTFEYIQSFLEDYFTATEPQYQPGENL
Experimental: as §1, §2, §3

[5] = biological target: ROCK2 (Homo sapiens (Human), UniProt O75116); assay: Kinase panel Z'-LYTE/Adapta SelectScreen; format: biochemical; conditions: 100 nM in 1% DMSO
Experimental: as §1, §2, §3

[6] = biological target: CSK (Homo sapiens (Human), UniProt P41240); assay: Kinase panel Z'-LYTE/Adapta SelectScreen; format: biochemical; conditions: 100 nM in 1% DMSO
Experimental: as §1, §2, §3

[7] = biological target: PLK1 (Homo sapiens (Human), UniProt P53350); assay: Kinase panel Z'-LYTE/Adapta SelectScreen; format: biochemical; conditions: 100 nM in 1% DMSO
Experimental: as §1, §2, §3

[8] = biological target: TYK2 (Homo sapiens (Human), UniProt P29597); assay: Kinase panel Z'-LYTE/Adapta SelectScreen; format: biochemical; conditions: 100 nM in 1% DMSO
Experimental: as §1, §2, §3

[9] = biological target: MAPK1 (ERK2) (Homo sapiens (Human), UniProt P28482); assay: Kinase panel Z'-LYTE/Adapta SelectScreen; format: biochemical; conditions: 100 nM in 1% DMSO
Experimental: as §1, §2, §3

[10] = biological target: BTK (Homo sapiens (Human), UniProt Q06187); assay: Kinase panel Z'-LYTE/Adapta SelectScreen; format: biochemical; conditions: 100 nM in 1% DMSO
Experimental: as §1, §2, §3

[11] = biological target: PDGFRB (PDGFR beta) (Homo sapiens (Human), UniProt P09619); assay: Kinase panel Z'-LYTE/Adapta SelectScreen; format: biochemical; conditions: 100 nM in 1% DMSO
Experimental: as §1, §2, §3

[12] = biological target: CHUK (IKKalpha) (Homo sapiens (Human), UniProt O15111); assay: Kinase panel Z'-LYTE/Adapta SelectScreen; format: biochemical; conditions: 100 nM in 1% DMSO
CHUK (IKKalpha), sequence (O15111 whole entry): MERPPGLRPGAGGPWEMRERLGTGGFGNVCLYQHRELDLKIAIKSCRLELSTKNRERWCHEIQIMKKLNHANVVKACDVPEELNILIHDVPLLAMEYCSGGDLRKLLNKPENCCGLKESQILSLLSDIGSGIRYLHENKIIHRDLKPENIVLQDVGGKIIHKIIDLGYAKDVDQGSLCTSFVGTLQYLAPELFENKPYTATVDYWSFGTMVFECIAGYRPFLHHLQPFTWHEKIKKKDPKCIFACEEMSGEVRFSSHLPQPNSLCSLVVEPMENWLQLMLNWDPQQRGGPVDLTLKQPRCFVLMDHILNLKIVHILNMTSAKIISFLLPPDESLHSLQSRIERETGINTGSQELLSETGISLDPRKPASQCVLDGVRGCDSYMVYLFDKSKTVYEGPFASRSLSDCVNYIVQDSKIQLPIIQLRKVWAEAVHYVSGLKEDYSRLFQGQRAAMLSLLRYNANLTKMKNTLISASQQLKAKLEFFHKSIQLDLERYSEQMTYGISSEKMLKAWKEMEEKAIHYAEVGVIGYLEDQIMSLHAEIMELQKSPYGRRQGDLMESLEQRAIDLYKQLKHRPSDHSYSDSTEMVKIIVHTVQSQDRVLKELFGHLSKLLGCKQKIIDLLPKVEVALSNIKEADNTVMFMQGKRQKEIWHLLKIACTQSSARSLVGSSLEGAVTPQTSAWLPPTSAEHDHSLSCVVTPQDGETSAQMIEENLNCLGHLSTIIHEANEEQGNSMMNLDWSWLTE
Experimental: as §1, §2, §3

[13] = biological target: JAK2 (Homo sapiens (Human), UniProt O60674); assay: Kinase panel Z'-LYTE/Adapta SelectScreen; format: biochemical; conditions: 100 nM in 1% DMSO
Experimental: as §1, §2, §3

[14] = biological target: NUK1 (ARK5) (Homo sapiens (Human), UniProt O60285); assay: Kinase panel Z'-LYTE/Adapta SelectScreen; format: biochemical; conditions: 100 nM in 1% DMSO
Experimental: as §1, §2, §3

[15] = biological target: NTRK2 (TRKB) (Homo sapiens (Human), UniProt Q16620); assay: Kinase panel Z'-LYTE/Adapta SelectScreen; format: biochemical; conditions: 100 nM in 1% DMSO
NTRK2 (TRKB), sequence (Q16620 32-822): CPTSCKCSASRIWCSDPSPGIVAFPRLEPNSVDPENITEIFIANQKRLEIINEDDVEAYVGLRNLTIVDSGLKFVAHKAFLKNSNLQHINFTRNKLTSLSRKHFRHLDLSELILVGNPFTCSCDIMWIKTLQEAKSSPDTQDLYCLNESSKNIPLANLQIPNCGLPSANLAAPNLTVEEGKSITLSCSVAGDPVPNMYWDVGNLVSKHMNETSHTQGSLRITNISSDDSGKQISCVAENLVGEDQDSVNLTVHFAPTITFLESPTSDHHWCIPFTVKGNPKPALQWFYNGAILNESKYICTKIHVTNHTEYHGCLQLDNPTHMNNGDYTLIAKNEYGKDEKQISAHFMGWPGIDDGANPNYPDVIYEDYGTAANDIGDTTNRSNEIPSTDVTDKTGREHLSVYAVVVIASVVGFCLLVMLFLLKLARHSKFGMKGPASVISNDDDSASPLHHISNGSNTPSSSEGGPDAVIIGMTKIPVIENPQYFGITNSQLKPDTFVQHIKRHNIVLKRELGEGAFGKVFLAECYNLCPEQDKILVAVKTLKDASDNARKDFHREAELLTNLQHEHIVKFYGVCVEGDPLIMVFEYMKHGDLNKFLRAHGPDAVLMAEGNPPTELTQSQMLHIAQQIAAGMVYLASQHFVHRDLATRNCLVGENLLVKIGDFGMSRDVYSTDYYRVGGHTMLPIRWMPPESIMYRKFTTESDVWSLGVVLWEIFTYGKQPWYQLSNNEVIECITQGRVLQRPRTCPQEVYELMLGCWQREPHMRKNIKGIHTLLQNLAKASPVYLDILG
Experimental: as §1, §2, §3

[16] = biological target: SRC (Homo sapiens (Human), UniProt P12931); assay: Kinase panel Z'-LYTE/Adapta SelectScreen; format: biochemical; conditions: 100 nM in 1% DMSO
Experimental: as §1, §2, §3

[17] = biological target: SYK (Homo sapiens (Human), UniProt P43405); assay: Kinase panel Z'-LYTE/Adapta SelectScreen; format: biochemical; conditions: 100 nM in 1% DMSO
Experimental: as §1, §2, §3

[18] = biological target: RET (Homo sapiens (Human), UniProt P07949); assay: Kinase panel Z'-LYTE/Adapta SelectScreen; format: biochemical; conditions: 100 nM in 1% DMSO
Experimental: as §1, §2, §3

[19] = biological target: FGFR1 (Homo sapiens (Human), UniProt P11362); assay: Kinase panel Z'-LYTE/Adapta SelectScreen; format: biochemical; conditions: 100 nM in 1% DMSO
Experimental: as §1, §2, §3

[20] = biological target: RPS6KA1 (RSX1) (Homo sapiens (Human), UniProt Q15418); assay: Kinase panel Z'-LYTE/Adapta SelectScreen; format: biochemical; conditions: 100 nM in 1% DMSO
Experimental: as §1, §2, §3

[21] = biological target: ALK (Homo sapiens (Human), UniProt Q9UM73); assay: Kinase panel Z'-LYTE/Adapta SelectScreen; format: biochemical; conditions: 100 nM in 1% DMSO
Experimental: as §1, §2, §3

[22] = biological target: ABL1 (Homo sapiens (Human), UniProt P00519); assay: Kinase panel Z'-LYTE/Adapta SelectScreen; format: biochemical; conditions: 100 nM in 1% DMSO
Experimental: as §1, §2, §3

[23] = biological target: FLT1 (VEGFR1) (Homo sapiens (Human), UniProt P17948); assay: Kinase panel Z'-LYTE/Adapta SelectScreen; format: biochemical; conditions: 100 nM in 1% DMSO
Experimental: as §1, §2, §3

[24] = biological target: MET (cMet) (Homo sapiens (Human), UniProt P08581); assay: Kinase panel Z'-LYTE/Adapta SelectScreen; format: biochemical; conditions: 100 nM in 1% DMSO
Experimental: as §1, §2, §3

[25] = biological target: MERTK (cMER) (Homo sapiens (Human), UniProt Q12866); assay: Kinase panel Z'-LYTE/Adapta SelectScreen; format: biochemical; conditions: 100 nM in 1% DMSO
Experimental: as §1, §2, §3

[26] = biological target: NTRK1 (TRKA) (Homo sapiens (Human), UniProt P04629); assay: Kinase panel Z'-LYTE/Adapta SelectScreen; format: biochemical; conditions: 100 nM in 1% DMSO
NTRK1 (TRKA), sequence (P04629 33-796): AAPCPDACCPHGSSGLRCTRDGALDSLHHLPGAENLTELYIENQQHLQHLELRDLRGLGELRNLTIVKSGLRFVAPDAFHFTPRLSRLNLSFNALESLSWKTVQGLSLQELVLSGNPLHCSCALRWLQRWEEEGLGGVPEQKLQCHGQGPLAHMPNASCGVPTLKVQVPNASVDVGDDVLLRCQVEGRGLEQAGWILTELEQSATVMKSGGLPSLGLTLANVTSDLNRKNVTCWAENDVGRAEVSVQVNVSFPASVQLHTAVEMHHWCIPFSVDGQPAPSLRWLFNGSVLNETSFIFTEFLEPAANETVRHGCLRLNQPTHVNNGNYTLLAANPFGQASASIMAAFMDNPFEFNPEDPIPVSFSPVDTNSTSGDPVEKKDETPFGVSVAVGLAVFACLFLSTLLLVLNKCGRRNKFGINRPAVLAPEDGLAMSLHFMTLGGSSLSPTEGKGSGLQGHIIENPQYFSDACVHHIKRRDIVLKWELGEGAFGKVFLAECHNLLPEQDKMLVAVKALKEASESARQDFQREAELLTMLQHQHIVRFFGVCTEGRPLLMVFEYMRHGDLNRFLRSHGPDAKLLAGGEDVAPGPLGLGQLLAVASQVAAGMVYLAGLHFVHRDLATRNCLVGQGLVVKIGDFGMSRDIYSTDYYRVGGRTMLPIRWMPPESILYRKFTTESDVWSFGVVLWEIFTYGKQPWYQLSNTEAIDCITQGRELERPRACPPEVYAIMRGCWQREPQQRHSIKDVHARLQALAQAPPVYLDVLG
Experimental: as §1, §2, §3

[27] = biological target: PDGFRA (PDGFR alpha) (Homo sapiens (Human), UniProt P16234); assay: Kinase panel Z'-LYTE/Adapta SelectScreen; format: biochemical; conditions: 100 nM in 1% DMSO
Experimental: as §1, §2, §3

[28] = biological target: FLT4 (VEGFR3) (Homo sapiens (Human), UniProt P35916); assay: Kinase panel Z'-LYTE/Adapta SelectScreen; format: biochemical; conditions: 100 nM in 1% DMSO
FLT4 (VEGFR3), sequence (P35916 25-1363): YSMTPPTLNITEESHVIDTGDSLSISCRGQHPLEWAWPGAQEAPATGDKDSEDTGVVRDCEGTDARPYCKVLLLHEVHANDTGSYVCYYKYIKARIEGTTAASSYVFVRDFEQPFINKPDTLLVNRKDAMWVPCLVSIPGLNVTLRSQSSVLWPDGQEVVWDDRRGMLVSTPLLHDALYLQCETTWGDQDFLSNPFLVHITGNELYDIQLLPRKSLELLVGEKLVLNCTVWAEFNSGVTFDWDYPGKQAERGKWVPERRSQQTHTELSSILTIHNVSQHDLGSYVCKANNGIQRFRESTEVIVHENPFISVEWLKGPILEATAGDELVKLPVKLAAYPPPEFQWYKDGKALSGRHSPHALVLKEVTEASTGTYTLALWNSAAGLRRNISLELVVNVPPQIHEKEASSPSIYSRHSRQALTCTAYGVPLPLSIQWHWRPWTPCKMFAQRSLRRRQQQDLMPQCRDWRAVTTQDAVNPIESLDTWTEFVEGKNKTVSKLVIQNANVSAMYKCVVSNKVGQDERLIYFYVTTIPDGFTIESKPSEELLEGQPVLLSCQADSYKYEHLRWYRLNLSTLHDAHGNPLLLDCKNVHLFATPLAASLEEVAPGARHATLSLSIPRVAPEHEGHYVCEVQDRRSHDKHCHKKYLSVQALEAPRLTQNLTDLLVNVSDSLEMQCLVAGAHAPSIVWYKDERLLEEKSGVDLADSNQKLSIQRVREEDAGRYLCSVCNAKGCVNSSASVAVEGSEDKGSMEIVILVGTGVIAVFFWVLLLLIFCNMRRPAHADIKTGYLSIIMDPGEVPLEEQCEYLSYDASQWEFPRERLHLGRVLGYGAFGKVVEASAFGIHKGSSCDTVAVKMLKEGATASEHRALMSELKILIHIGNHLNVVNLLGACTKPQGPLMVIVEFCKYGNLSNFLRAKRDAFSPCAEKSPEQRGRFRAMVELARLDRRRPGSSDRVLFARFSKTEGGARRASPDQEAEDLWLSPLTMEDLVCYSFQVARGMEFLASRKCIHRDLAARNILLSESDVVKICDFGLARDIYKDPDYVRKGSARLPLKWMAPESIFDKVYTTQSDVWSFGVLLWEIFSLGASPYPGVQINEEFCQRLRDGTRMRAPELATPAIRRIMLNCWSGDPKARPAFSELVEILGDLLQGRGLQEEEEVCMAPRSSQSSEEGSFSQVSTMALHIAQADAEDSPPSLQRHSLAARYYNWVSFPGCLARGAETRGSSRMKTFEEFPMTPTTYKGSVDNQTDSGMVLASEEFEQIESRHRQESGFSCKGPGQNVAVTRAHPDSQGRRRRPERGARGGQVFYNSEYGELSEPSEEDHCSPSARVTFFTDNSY
Experimental: as §1, §2, §3

[29] = system: SARS-COV-2 virus, BetaCoV/France/IDF0371/2020; assay: Anti-SARS-COV-2 activity in A549-ACE2 cells; format: cell-based; conditions: MOI=0.01, 24 hours, qRT-PCR; for infection of the A549-ACE2 cells by the SARS-COV-2 virus: 1.25 μM; for IC50: A549-ACE2 cells
[30] = biological target: Axl (Homo sapiens (Human), UniProt P30530); assay: Kinase panel Z'-LYTE/Adapta SelectScreen and IC50 determination; format: biochemical; conditions: for Percentage inhibition AXL: 100 nM in 1% DMSO; for IC50: 10 concentrations between 100 nM and 0.00495 nM
Axl, sequence (P30530 26-894): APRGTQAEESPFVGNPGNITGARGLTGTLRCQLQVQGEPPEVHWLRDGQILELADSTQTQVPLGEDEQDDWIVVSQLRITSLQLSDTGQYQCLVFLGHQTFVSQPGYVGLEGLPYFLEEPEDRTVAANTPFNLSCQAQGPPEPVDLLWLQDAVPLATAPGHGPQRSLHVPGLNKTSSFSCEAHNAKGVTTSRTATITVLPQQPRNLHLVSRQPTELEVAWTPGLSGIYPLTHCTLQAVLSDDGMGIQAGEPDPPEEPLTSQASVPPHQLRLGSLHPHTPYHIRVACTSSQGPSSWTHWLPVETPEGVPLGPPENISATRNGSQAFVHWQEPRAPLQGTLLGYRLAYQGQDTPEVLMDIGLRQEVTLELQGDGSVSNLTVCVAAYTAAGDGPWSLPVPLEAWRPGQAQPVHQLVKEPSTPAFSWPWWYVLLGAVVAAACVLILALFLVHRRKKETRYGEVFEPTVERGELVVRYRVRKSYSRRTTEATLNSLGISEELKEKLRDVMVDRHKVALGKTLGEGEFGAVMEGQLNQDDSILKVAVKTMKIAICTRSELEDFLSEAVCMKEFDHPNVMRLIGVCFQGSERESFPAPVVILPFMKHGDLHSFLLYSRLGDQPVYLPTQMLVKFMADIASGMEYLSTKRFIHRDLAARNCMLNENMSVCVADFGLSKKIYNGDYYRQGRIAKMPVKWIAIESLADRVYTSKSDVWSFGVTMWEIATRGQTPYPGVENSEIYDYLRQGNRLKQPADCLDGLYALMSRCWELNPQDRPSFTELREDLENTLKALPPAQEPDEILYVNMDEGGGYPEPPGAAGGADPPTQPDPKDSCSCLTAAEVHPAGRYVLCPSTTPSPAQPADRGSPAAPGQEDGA
Experimental: FIG. 2: […] The compounds are screened in DMSO at 1% final. The kinases were diluted in a concentrated concentration twice in kinase buffer. All the ATP solutions were diluted in a 4-fold concentrated working concentration (50 mM HEPES pH 7.5, 0.01% BRIJ-35, 10 mM MgCl2, 1 mM EGTA). […] The inhibitory activity of the compounds on a panel of kinases including, inter alia, AXL and FLT3 was evaluated by Thermo Fisher Scientific using Z′-LYTE® and Adapta® Select Screen technology. The fluorescence-based biochemical test uses coupled enzymes and is based on the difference in sensitivity of the phosphorylated and non-phosphorylated peptides to proteolytic cleavage. The peptide substrate is labeled with 2 fluorophores—one at each end—allowing fluorescence transfer (FRET). […] The Axl or FLT3 kinases were diluted at a two-fold concentration in kinase buffer. All the ATP solutions are diluted in a 4-fold working concentration (50 mM HEPES PH 7.5, 0.01% BRIJ-35, 10 mM MgCl2, 1 mM EGTA).

| SMILES | Percentage inhibition TYRO3 (RSE) [1] [%] | Percentage inhibition IKBKB (IKK beta) [2] [%] | Percentage inhibition KIT [3] [%] | Percentage inhibition YES1 [4] [%] | Percentage inhibition ROCK2 [5] [%] | Percentage inhibition CSK [6] [%] | Percentage inhibition PLK1 [7] [%] | Percentage inhibition TYK2 [8] [%] | Percentage inhibition MAPK1 (ERK2) [9] [%] | Percentage inhibition BTK [10] [%] | Percentage inhibition PDGFRB (PDGFR beta) [11] [%] | Percentage inhibition CHUK (IKKalpha) [12] [%] | Percentage inhibition JAK2 [13] [%] | Percentage inhibition NUK1 (ARK5) [14] [%] | Percentage inhibition NTRK2 (TRKB) [15] [%] | Percentage inhibition SRC [16] [%] | Percentage inhibition SYK [17] [%] | Percentage inhibition RET [18] [%] | Percentage inhibition FGFR1 [19] [%] | Percentage inhibition RPS6KA1 (RSX1) [20] [%] | further results |
| --- | --- | --- | --- | --- | --- | --- | --- | --- | --- | --- | --- | --- | --- | --- | --- | --- | --- | --- | --- | --- | --- |
| CN1CCN(Cc2cccc(-c3cnc4[nH]cc(-c5cc(NC(=O)Nc6ccccc6)ccc5F)c4c3)c2)CC1 [Compound 3] | 19 | 13 | 15 | 11 | 9 | 8 | 6 | 7 | 6 | 10 | 19 | 4 | 13 | 14 | 94 | 10 | 8 | 23 | 27 | 41 | Percentage inhibition ALK [21]: 17%; Percentage inhibition ABL1 [22]: 22%; Percentage inhibition FLT1 (VEGFR1) [23]: 19%; Percentage inhibition MET (cMet) [24]: 16%; Percentage inhibition MERTK (cMER) [25]: 75%; Percentage inhibition NTRK1 (TRKA) [26]: 69%; Percentage inhibition PDGFRA (PDGFR alpha) [27]: 21%; Percentage inhibition FLT4 (VEGFR3) [28]: 37%; infection of the A549-ACE2 cells by the SARS-COV-2 virus [29]: prevent the infection; IC50 [29]: 38 nM; Percentage inhibition AXL [30]: 94%; IC50 [30]: 6.3 nM; selectivity with respect to Axl relative to FLT3 ([30]; from IC50 Axl and IC50 FLT3): shows a selectivity with respect to Axl relative to FLT3 |
| CN1CCN(Cc2cccc(-c3cnc4[nH]cc(-c5cc(CNCCc6ccc(O)cc6)ccc5F)c4c3)c2)CC1 [Compound 1] | 51 | 33 | 8 | 18 | 16 | 7 | 4 | 5 | 11 | 12 | 37 | 43 | 19 | 74 | 61 | 19 | 4 | 84 | 43 | 38 | Percentage inhibition ALK [21]: 45%; Percentage inhibition ABL1 [22]: 38%; Percentage inhibition FLT1 (VEGFR1) [23]: 53%; Percentage inhibition MET (cMet) [24]: 15%; Percentage inhibition MERTK (cMER) [25]: 98%; Percentage inhibition NTRK1 (TRKA) [26]: 53%; Percentage inhibition PDGFRA (PDGFR alpha) [27]: 57%; Percentage inhibition FLT4 (VEGFR3) [28]: 64%; infection of the A549-ACE2 cells by the SARS-COV-2 virus [29]: prevent the infection; IC50 [29]: 19 nM; Percentage inhibition AXL [30]: 95%; IC50 [30]: 5.36 nM |
| CN1CCN(Cc2cccc(-c3cnc4[nH]cc(-c5cc(CNCc6ccccc6)ccc5F)c4c3)c2)CC1 [Compound 2] | 67 | 28 | 49 | 15 | 5 | 12 | 4 | 5 | 6 | 10 | 30 | 14 | 23 | 16 | 103 | 16 | 11 | 48 | 20 | 16 | Percentage inhibition ALK [21]: 12%; Percentage inhibition ABL1 [22]: 16%; Percentage inhibition FLT1 (VEGFR1) [23]: 19%; Percentage inhibition MET (cMet) [24]: 92%; Percentage inhibition MERTK (cMER) [25]: 96%; Percentage inhibition NTRK1 (TRKA) [26]: 96%; Percentage inhibition PDGFRA (PDGFR alpha) [27]: 31%; Percentage inhibition FLT4 (VEGFR3) [28]: 33%; infection of the A549-ACE2 cells by the SARS-COV-2 virus [29]: prevent the infection; IC50 [29]: 57 nM; Percentage inhibition AXL [30]: 95%; IC50 [30]: 2.36 nM |
